In patent publication US8354402B2, “Polyarylcarboxamides useful as lipid lowering agents” (Janssen Pharmaceutica N.V., priority 2000, dated 2013):
Structures can show the parent of a compound that is named as a salt.

Tested on: ApoB secretion, HepG2 cells
Experiment: Quantification of the secretion of ApoB (HepG2 cells, immunoprecipitation, scintillation counting)
Type: cell-based
Settings: 24 hours of incubation; for IC50: Homo sapiens
Method: C.1. Quantification of the Secretion of ApoB
HepG2 cells were cultured in 24-well plates in Minimal Essential Medium Rega 3 containing 10% fetal calf serum. Rega 3 has the following composition: CaCl2 (264 μg/ml), KCl (400 μg/ml), MgSO4.7H2O (200 μg/ml), NaCl (6800 μg/ml), NaHCO3 (850 μg/ml), NaH2PO4.H2O (158 μg/ml), D-glucose (1000 μg/ml), phenol red (10 μg/ml), L-alanine (8.9 μg/ml), L-arginine HCl (12 μg/ml), L-asparagine.H2O (15 μg/ml), L-aspartic acid (13.3 μg/ml), L-cystine (24 μg/ml), L-glutamic acid (14.7 μg/ml), glycine (7.5 μg/ml), L-histidine.HCl .H2O (42 μg/ml), L-isoleucine (52 μg/ml), L-leucine (52 μg/ml), L-lysine.HCl (72.5 μg/ml), L-methionine (15 μg/ml), L-phenylalanine (32 μg/ml), L-proline (11.5 μg/ml), L-serine (10.5 μg/ml), L-threonine (48 μg/ml), L-tryptophan (10 μg/ml), L-tyrosine (36 μg/ml), L-valine (46 μg/ml), D-Ca pantothenate (1 μg/ml), choline chloride (1 μg/ml), folic acid (1 μg/ml), 1-enositol (2 μg/ml), nicotinamide (1 μg/ml), pyridoxal HCl (1 μg/ml), riboflavin (0.1 μg/ml) and thiamine HCl (1 μg/ml).
At 70% confluency, the medium was changed and the test compound or carrier (dimethylsulfoxide, 0.4% final concentration) was added. After 24 hours of incubation, the medium was transferred to Eppendorf tubes and cleared by centrifugation. A sheep antibody directed against either apo B was added to the supernatant and the mixture was kept at 8° C. for 24 hours. Then, rabbit anti-sheep antibody was added and the immune complex was allowed to precipitate for 24 hours at 8° C. The immunoprecipitate was pelleted by centrifugation for 25 minutes at 1320 g and washed twice with a buffer containing 40 mM 4-morpholinepropanesulfonic acid, 40 mM NaH2PO4, 100 mM NaF, 0.2 mM dithiothreitol, 5 mM ethylenediamine tetraacetic acid, 5 mM ethylenebis (oxyethylenenitrilo) tetraacetic acid, 1% Triton-X-100, 0.5% sodium deoxycholate, 0.1% sodium dodecylsulphate, 0.2 μM leupeptin and 0.2 μM phenylmethylsulphonylfluoride. Radioactivity in the pellet was quantified by liquid scintillation counting.
Resulting IC50 values are enumerated in Table C.1 for a number of compounds No. 1 to No. 123.

COC(=O)N(c1ccccc1)C1CCN(c2ccc(NC(=O)c3ccccc3-c3ccc(C(F)(F)F)cc3)cc2)CC1 [Co. No. 251]
IC50: 0.00964 µM

CCNC(=O)C(c1ccc(F)cc1)C1CCN(c2ccc(NC(=O)c3ccccc3-c3ccc(C(C)(C)C)cc3)cc2)CC1 (stereo not drawn) [Co. No. 257]
IC50 (HepG2, 24 h): 0.0139 µM

CC(C)NC(=O)C(c1ccccc1)C1CCN(c2ccc(NC(=O)c3ccccc3Oc3ccccc3)cc2)CC1 (stereo not drawn) [Co. No. 27]
IC50 (HepG2, 24 h): 1.3 µM

CCNC(=O)C(c1ccccc1)N1CCN(c2ccc(NC(=O)c3ccccc3-c3ccc(C(F)(F)F)cc3)c(F)c2)CC1 (stereo not drawn) [Co. No. 219]
IC50 (HepG2, 24 h): 0.0785 µM

O=C(Nc1ccc(N2CCC(C(C(=O)OCc3ccccc3)c3ccccc3)CC2)cc1)c1ccccc1-c1ccccc1 (stereo not drawn) [Co. No. 177]
IC50 (HepG2, 24 h): 0.261 µM

CC(C)NC(=O)C(c1ccccc1)C1CCN(c2ccc(NC(=O)c3ccccc3Cc3ccccc3)cc2)CC1 (stereo not drawn) [Co. No. 28]
IC50 (HepG2, 24 h): 0.767 µM

COC(=O)C(c1ccccc1)C1CCN(c2ccc(NC(=O)c3ccccc3-c3ccc(C(C)(C)C)cc3)cc2)CC1 (stereo not drawn) [Co. No. 238]
pIC50 (listed as 238): 7.824

CCCNC(=O)C(c1ccccc1)C1CCN(c2ccc(NC(=O)c3ccccc3Oc3ccccc3)cc2)CC1 (stereo not drawn) [Co. No. 19]
IC50 (HepG2, 24 h): 0.264 µM

C=CCOC(=O)C(c1ccccc1)N1CCC(c2ccc(NC(=O)c3ccccc3-c3ccc(C(F)(F)F)cc3)cc2)CC1 (stereo not drawn) [Co. No. 152]
IC50 (HepG2, 24 h): 0.0944 µM

CCCCNC(=O)C(CN1CCN(c2ccc(NC(=O)c3ccccc3-c3ccc(C(F)(F)F)cc3)cc2)CC1)c1ccccc1 (stereo not drawn) [Co. No. 64]
IC50 (HepG2, 24 h): 0.159 µM

CC(C)(C)c1ccc(-c2ccccc2C(=O)Nc2ccc(N3CCC(C(C(=O)NCc4ccccc4)c4ccccc4)CC3)cc2)cc1 (stereo not drawn) [Co. No. 53]
IC50 (HepG2, 24 h): 0.00184 µM

CCCNC(=O)C(c1ccccc1)C1CCN(c2ccc(NC(=O)c3ccccc3-c3cccc4ccccc34)cc2)CC1 (stereo not drawn) [Co. No. 42]
IC50 (HepG2, 24 h): ≥ 3 µM

CCCNC(=O)C(c1ccccc1)C1CCN(c2ccc(NC(=O)c3ccccc3-c3ccc(C(F)(F)F)cc3)cc2)CC1 (stereo not drawn) [Co. No. 38, N-[4-[4-[2-oxo-1-phenyl-2-(propylamino)ethyl]-1-piperidinyl]phenyl]-4′-(trifluoromethyl)-[1,1′-biphenyl]-2-carboxamide trifluoroacetate (1:1)]
IC50: 0.00662 µM

O=C(Nc1ccc(N2CCN(C(C(=O)NCc3cccnc3)c3ccccc3)CC2)cc1)c1ccccc1-c1ccc(C(F)(F)F)cc1 (stereo not drawn) [Co. No. 59]
IC50 (HepG2, 24 h): ≤ 0.03 µM

CCCCNC(=O)C(c1ccccc1)N1CCC(c2ccc(NC(=O)c3ccccc3-c3ccc(C(F)(F)F)cc3)cc2)CC1 (stereo not drawn) [Co. No. 73]
IC50 (HepG2, 24 h): 0.00608 µM

COC(=O)C(c1ccccc1)N1CCN(c2ccc(NC(=O)c3cc(Cl)ccc3-c3ccc(C(F)(F)F)cc3)cc2)CC1 (stereo not drawn) [Co. No. 191]
IC50 (HepG2, 24 h): 0.00719 µM

CC(C)NC(=O)C(c1ccccc1)C1CCN(c2ccc(NC(=O)c3ccccc3-c3ccccc3)cc2)CC1 (stereo not drawn) [Co. No. 22]
IC50 (HepG2, 24 h): 0.104 µM

CCOC(=O)C(c1ccccc1)C1CCN(c2ccc(NC(=O)c3ccccc3-c3ccc(C(F)(F)F)cc3)cc2)CC1 (stereo not drawn) [Co. No. 243]
IC50 (HepG2, 24 h): < 0.03 µM

CCCNC(=O)C(c1ccccc1)C1CCN(c2ccc(NC(=O)c3ccccc3OCc3ccccc3)cc2)CC1 (stereo not drawn) [Co. No. 18]
IC50 (HepG2, 24 h): 0.206 µM

O=C(Nc1ccc(N2CCC(C(C(=O)Nc3ccccc3)c3ccccc3)CC2)cc1)c1ccccc1-c1cc(Cl)cc(Cl)c1 (stereo not drawn) [Co. No. 106]
IC50 (HepG2, 24 h): 0.251 µM

CCNC(=O)C(c1ccccc1)C1CCN(c2ccc(NC(=O)c3ccccc3-c3cccc(N)c3)cc2)CC1 (stereo not drawn) [Co. No. 89]
IC50 (HepG2, 24 h): 0.363 µM

COC(=O)C(c1ccccc1)N1CCCN(c2ccc(NC(=O)c3ccccc3-c3ccc(C(F)(F)F)cc3)cc2)CC1 (stereo not drawn) [Co. No. 119]
IC50 (HepG2, 24 h): 0.175 µM

CC(=O)N(c1ccccc1)C1CCN(c2ccc(NC(=O)c3ccccc3-c3ccc(C(F)(F)F)cc3)cc2)CC1 [Co. No. 253]
IC50: 0.13 µM

CCCNC(=O)C(c1ccccc1)C1CCN(c2ccc(NC(=O)c3ccccc3-c3ccc(Cl)c(Cl)c3)cc2)CC1 (stereo not drawn) [Co. No. 83]
IC50 (HepG2, 24 h): 0.0433 µM

COC(=O)C(c1ccccc1)N1CCN(c2cc(F)c(NC(=O)c3ccccc3-c3ccc(C(F)(F)F)cc3)c(F)c2)CC1 (stereo not drawn) [Co. No. 204]
IC50 (HepG2, 24 h): 0.428 µM

O=C(Nc1ccc(N2CCC(C(C(=O)NCc3ccccc3)c3ccccc3)CC2)cc1)c1ccccc1OCc1ccccc1 (stereo not drawn) [Co. No. 8]
IC50 (HepG2, 24 h): 0.0601 µM

CCCNC(=O)C(c1ccccc1)C1CCN(c2ccc(NC(=O)c3ccccc3-c3ccc(OC)cc3)cc2)CC1 (stereo not drawn) [Co. No. 46]
IC50 (HepG2, 24 h): 0.461 µM

Nc1cccc(-c2ccccc2C(=O)Nc2ccc(N3CCC(C(C(=O)Nc4ccccc4)c4ccccc4)CC3)cc2)c1 (stereo not drawn) [Co. No. 111]
IC50 (HepG2, 24 h): 0.221 µM

O=C(Nc1ccc(N2CCC(C(C(=O)Nc3ccccc3)c3ccccc3)CC2)cc1)c1ccccc1Oc1ccccc1 (stereo not drawn) [Co. No. 34]
IC50 (HepG2, 24 h): 1.55 µM

O=C(Nc1ccc(N2CCC(C(C(=O)NCc3ccccc3)c3ccccc3)CC2)cc1)c1ccccc1-c1cccc2ccccc12 (stereo not drawn) [Co. No. 136]
IC50 (HepG2, 24 h): 0.148 µM

O=C(Nc1ccc(C2CCN(C(C(=O)OCCCc3ccccc3)c3ccccc3)CC2)cc1)c1ccccc1-c1ccc(C(F)(F)F)cc1 (stereo not drawn) [Co. No. 221]
IC50 (HepG2, 24 h): < 0.03 µM

CCCNC(=O)C(c1ccccc1)C1CCN(c2ccc(NC(=O)c3cccc4c3-c3ccccc3C4)cc2)CC1 (stereo not drawn) [Co. No. 12]
IC50 (HepG2, 24 h): 0.231 µM

O=C(Nc1ccc(N2CCC(C(C(=O)NCc3ccccc3)c3ccccc3)CC2)cc1)c1ccccc1Oc1ccccc1 (stereo not drawn) [Co. No. 9]
IC50 (HepG2, 24 h): 0.221 µM

CCNC(=O)C(c1ccccc1)C1CCN(c2ccc(NC(=O)c3ccccc3-c3ccccc3OC)cc2)CC1 (stereo not drawn) [Co. No. 135]
IC50 (HepG2, 24 h): 0.149 µM

CC(C)NC(=O)C(c1ccccc1)C1CCN(c2ccc(NC(=O)c3ccccc3CSc3ccccc3)cc2)CC1 (stereo not drawn) [Co. No. 24]
IC50 (HepG2, 24 h): 0.847 µM

CC(C)NC(=O)C(c1ccccc1)C1CCN(c2ccc(NC(=O)c3cccc4c3Cc3ccccc3-4)cc2)CC1 (stereo not drawn) [Co. No. 23]
IC50 (HepG2, 24 h): ≥ 3 µM

COC(=O)C(c1ccccc1)N1CCC(c2ccc(NC(=O)c3ccccc3-c3ccccc3)cc2)CC1 (stereo not drawn) [Co. No. 143]
IC50 (HepG2, 24 h): 0.234 µM

COC(=O)C(c1ccccc1)N1CCN(c2ccc(NC(=O)c3ccccc3-c3ccc(C(F)(F)F)cc3)cc2C(F)(F)F)CC1 (stereo not drawn) [Co. No. 210]
IC50 (HepG2, 24 h): 0.483 µM

C=CCOC(=O)C(c1ccccc1)N1CCC(c2ccc(NC(=O)c3ccccc3-c3ccccc3)cc2)CC1 (stereo not drawn) [Co. No. 154]
IC50 (HepG2, 24 h): 2.32 µM

O=C(Nc1ccc(N2CCC(C(C(=O)NCc3ccccc3)c3ccccc3)CC2)cc1)c1ccccc1-c1cccc(C(F)(F)F)c1 (stereo not drawn) [Co. No. 105]
IC50 (HepG2, 24 h): 0.0906 µM

Nc1cccc(-c2ccccc2C(=O)Nc2ccc(N3CCC(C(C(=O)NCc4ccccc4)c4ccccc4)CC3)cc2)c1 (stereo not drawn) [Co. No. 98]
IC50 (HepG2, 24 h): 0.0579 µM

CCc1ccc(-c2c(C)cccc2C(=O)Nc2ccc(N3CCC(C(C(=O)OC)c4ccccc4)CC3)cc2)cc1 (stereo not drawn) [Co. No. 234]
IC50 (HepG2, 24 h): < 0.03 µM

CC(C)CNC(=O)C(c1ccccc1)N1CCC(c2ccc(NC(=O)c3ccccc3-c3ccc(C(F)(F)F)cc3)cc2)CC1 (stereo not drawn) [Co. No. 74]
IC50 (HepG2, 24 h): ≤ 0.03 µM

CCNC(=O)C(c1ccccc1)N1CCN(c2ccc(NC(=O)c3ccccc3-c3ccc(C(F)(F)F)cc3)cc2Cl)CC1 (stereo not drawn) [Co. No. 213]
IC50 (HepG2, 24 h): < 0.03 µM

CC(C)CCOC(=O)C(c1ccccc1)C1CCN(c2ccc(NC(=O)c3ccccc3-c3ccc(C(F)(F)F)cc3)cc2)CC1 (stereo not drawn) [Co. No. 249]
IC50 (HepG2, 24 h): > 3 µM

CCCNC(=O)C(c1ccccc1)N1CCCN(c2ccc(NC(=O)c3ccccc3-c3ccc(C(F)(F)F)cc3)cc2)CC1 (stereo not drawn) [Co. No. 123]
IC50 (HepG2, 24 h): 0.241 µM

CCNC(=O)C(c1ccccc1)C1CCN(c2ccc(NC(=O)c3ccccc3-c3ccc(Cl)c(Cl)c3)cc2)CC1 (stereo not drawn) [Co. No. 88]
IC50 (HepG2, 24 h): ≤ 0.03 µM

CCNC(=O)C(c1ccccc1)N1CCN(c2ccc(NC(=O)c3cc(Cl)ccc3-c3ccc(C(F)(F)F)cc3)cc2)CC1 (stereo not drawn) [Co. No. 200]
IC50 (HepG2, 24 h): 0.0802 µM

O=C(Nc1ccc(N2CCC(C(C(=O)OCCc3ccccc3)c3ccccc3)CC2)cc1)c1ccccc1-c1ccc(C(F)(F)F)cc1 (stereo not drawn) [Co. No. 250]
IC50 (HepG2, 24 h): 0.233 µM

O=C(Nc1ccc(N2CCC(C(C(=O)NCc3ccccc3)c3ccccc3)CC2)cc1)c1ccccc1-c1ccc(F)cc1 (stereo not drawn) [Co. No. 102]
IC50 (HepG2, 24 h): 0.0185 µM

COC(=O)C(c1ccccc1)N1CCN(c2ccc(NC(=O)c3ccc(Cl)cc3-c3ccc(C(F)(F)F)cc3)cc2)CC1 (stereo not drawn) [Co. No. 192]
IC50 (HepG2, 24 h): 0.158 µM

O=C(Nc1ccc(N2CCN(C(C(=O)Nc3ccccc3)c3ccccc3)CC2)cc1)c1ccccc1-c1ccccc1 (stereo not drawn) [Co. No. 145]
IC50 (HepG2, 24 h): 0.185 µM

COC(=O)C(c1ccccc1)C1CCN(c2ccc(NC(=O)c3cccc(C)c3-c3ccc(C(C)(C)C)cc3)cc2)CC1 (stereo not drawn) [Co. No. 237]
IC50 (HepG2, 24 h): < 0.03 µM

Cc1ccccc1-c1ccccc1C(=O)Nc1ccc(N2CCC(C(C(=O)Nc3ccccc3)c3ccccc3)CC2)cc1 (stereo not drawn) [Co. No. 107]
IC50 (HepG2, 24 h): 0.292 µM
